{"source": "patent US5223526A", "about": "“Pyrazole carboxanilide fungicides and use” (Monsanto Company, priority 1992, dated 1993)", "key": {"Botrytis cinerea [1]": {"test_system": "Botrytis cinerea", "experiment": "Vine grey mold (grape berries)", "assay_type": "in vivo", "conditions": "average of six berries, 7-10 days; for pest or weed control at 50 ppm: grape berries treated with 50 ppm, read-out: % DISEASE CONTROL 50 ppm; for pest or weed control at 200 ppm: grape berries treated with 200 ppm, read-out: % DISEASE CONTROL 200 ppm", "how_it_was_run": "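Preventive berry test: compound at 50 or 200 ppm (acetone/water, 0.05% Tween 20) applied one day before inoculation with 10^6 spores/mL Botrytis conidia. After 7-10 days at 20 °C under 12 h light, infected surface area rated; disease control expressed as percent reduction from control mean; repeated-test values averaged.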"}, "succinate dehydrogenase": {"biological_target": "T1, succinate dehydrogenase (Botrytis cinerea, UniProt A0A384J5E4+A0A384J8V8+A0A384JHJ5)", "T1 construct": "succinate-DCPIP reductase assay with KCN", "T1 sequence (A0A384J5E4 1-300)": "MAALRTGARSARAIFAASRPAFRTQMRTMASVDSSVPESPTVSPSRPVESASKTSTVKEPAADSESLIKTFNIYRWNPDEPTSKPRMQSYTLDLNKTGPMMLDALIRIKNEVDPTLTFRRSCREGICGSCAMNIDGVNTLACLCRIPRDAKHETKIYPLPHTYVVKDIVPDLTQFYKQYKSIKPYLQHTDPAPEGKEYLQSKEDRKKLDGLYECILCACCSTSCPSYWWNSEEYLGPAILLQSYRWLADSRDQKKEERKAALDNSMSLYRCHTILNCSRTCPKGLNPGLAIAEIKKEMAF", "T1 sequence (A0A384J8V8 1-189)": "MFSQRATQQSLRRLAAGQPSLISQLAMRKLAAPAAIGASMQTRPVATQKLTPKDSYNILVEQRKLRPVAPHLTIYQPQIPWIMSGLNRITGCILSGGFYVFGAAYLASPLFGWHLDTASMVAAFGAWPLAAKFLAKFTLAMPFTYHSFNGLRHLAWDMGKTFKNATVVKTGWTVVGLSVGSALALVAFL", "T1 sequence (A0A384JHJ5 1-192)": "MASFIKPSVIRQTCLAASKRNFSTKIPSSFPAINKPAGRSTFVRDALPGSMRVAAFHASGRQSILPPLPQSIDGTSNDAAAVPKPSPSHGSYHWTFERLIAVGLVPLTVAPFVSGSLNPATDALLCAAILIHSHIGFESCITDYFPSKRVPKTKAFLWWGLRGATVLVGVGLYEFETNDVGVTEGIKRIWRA", "T1 sequence (A0A384K456 1-647 partner)": "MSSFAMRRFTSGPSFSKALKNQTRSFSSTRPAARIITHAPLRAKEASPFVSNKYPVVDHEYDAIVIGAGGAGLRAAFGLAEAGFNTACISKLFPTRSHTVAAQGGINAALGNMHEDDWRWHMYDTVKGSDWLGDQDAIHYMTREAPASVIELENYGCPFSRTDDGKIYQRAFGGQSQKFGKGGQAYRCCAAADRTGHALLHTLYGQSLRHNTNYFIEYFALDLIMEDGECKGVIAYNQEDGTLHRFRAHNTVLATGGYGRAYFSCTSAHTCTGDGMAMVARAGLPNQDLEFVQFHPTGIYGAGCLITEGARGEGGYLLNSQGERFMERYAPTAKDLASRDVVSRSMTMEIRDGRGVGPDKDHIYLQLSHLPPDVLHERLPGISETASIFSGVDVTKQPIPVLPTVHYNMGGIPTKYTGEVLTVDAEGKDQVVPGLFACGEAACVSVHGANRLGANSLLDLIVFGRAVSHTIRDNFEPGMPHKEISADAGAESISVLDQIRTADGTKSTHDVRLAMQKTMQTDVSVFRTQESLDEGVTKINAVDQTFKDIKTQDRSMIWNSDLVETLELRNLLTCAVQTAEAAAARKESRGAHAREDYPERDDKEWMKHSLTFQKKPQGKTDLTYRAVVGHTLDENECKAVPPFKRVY", "experiment": "Enzyme inhibition: succinate dehydrogenase activity in Botrytis cinerea mitochondria (DCPIP reduction)", "assay_type": "biochemical", "conditions": "concentration required to inhibit the rate of DCPIP reduction by 50%; Botrytis cinerea isolate Nick mitochondria; read-out: I50 (μM conc.)", "how_it_was_run": "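Crude mitochondria from Botrytis cinerea isolate Nick mycelia, prepared by bead-beating and differential centrifugation, started reactions. SDH activity followed as DCPIP reduction at 600 nm in 50 mM K-phosphate pH 7.2 with 1 mM KCN, 45 μM DCPIP, 17 mM succinate, 1% acetone. I50 from semilog inhibition plots, corrected for succinate-free rates.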"}, "Botrytis cinerea [2]": {"test_system": "Botrytis cinerea", "experiment": "Eggplant grey mold; for Disease Control Rating at 500 ppm: key: 0: No disease control; 1: Low level of control; 2: Moderate control; 3: High level of control", "assay_type": "in vivo", "parameters": "scale not given here", "conditions": "inoculated 24 h later, rated after 3-4 days; for Disease Control Rating at 500 ppm: eggplant sprayed with 500 ppm; for Disease Control Rating at 20 ppm: eggplant sprayed with 20 ppm; for Disease Control Rating at 100 ppm: eggplant sprayed with 100 ppm", "how_it_was_run": "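Protective test: compound formulations (2:3 acetone:water, 0.5% Tween 20; 500, 100 or 20 ppm) sprayed on 14-18-day-old plants, with spore inoculum (4×10^6 spore/mL) applied a day later. Disease control rated on Botrytis lesions after 3-4 days at 23 °C and 100% humidity.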"}, "Rhizoctonia solani": {"test_system": "Rhizoctonia solani", "experiment": "Rice sheath blight", "assay_type": "in vivo", "parameters": "scale not given here", "conditions": "inoculated two days later, rated after 7 days, average of five plants; for Disease Control Rating at 0.02 mg/mL: foliage and soil sprayed with 0.02 mg/mL; for Disease Control Rating at 0.1 mg/mL: foliage and soil sprayed with 0.1 mg/mL; for Disease Control Rating at 0.5 mg/mL: foliage and soil sprayed with 0.5 mg/mL", "how_it_was_run": "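Rice plants 11–15 days old had foliage and soil sprayed with 0.5, 0.1 or 0.02 mg/mL Compound A in water/acetone/Tween 20, then kept in flooded trays. Two days later, rice-grain Rhizoctonia solani inoculum went to plant bases; disease control scored versus untreated after 7 days at 25 °C, high humidity, averaging five plants.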"}}}
{"smiles": "Cn1cc(C(=O)Nc2ccccc2C2CCCCCC2)c(Br)n1", "note": "[Example 63, 1H-pyrazole-4-carboxamide, 3-bromo-N-(2-cycloheptylphenyl)-1-methyl-]", "values": [{"measurement": "pest or weed control at 50 ppm", "setting": "Botrytis cinerea [1]", "result": 34, "unit": "%"}, {"measurement": "pest or weed control at 200 ppm", "setting": "Botrytis cinerea [1]", "result": 65, "unit": "%"}, {"measurement": "IC50", "setting": "succinate dehydrogenase", "result": 0.0063, "unit": "µM"}, {"measurement": "Disease Control Rating at 500 ppm", "setting": "Botrytis cinerea [2]", "result": 1}, {"measurement": "Disease Control Rating at 0.02 mg/mL", "setting": "Rhizoctonia solani", "result": 2}, {"measurement": "Disease Control Rating at 0.1 mg/mL", "setting": "Rhizoctonia solani", "result": 3}, {"measurement": "Disease Control Rating at 0.5 mg/mL", "setting": "Rhizoctonia solani", "result": 3}]}
{"smiles": "Cn1cc(C(=O)Nc2ccccc2C2CCCCC2)c(C(F)F)n1", "note": "[Example 1, 1H-pyrazole-4-carboxamide, N-(2-cyclohexylphenyl)-3-(difluoromethyl)-1-methyl-]", "values": [{"measurement": "pest or weed control at 50 ppm", "setting": "Botrytis cinerea [1]", "result": 92, "unit": "%"}, {"measurement": "pest or weed control at 200 ppm", "setting": "Botrytis cinerea [1]", "result": 94, "unit": "%"}, {"measurement": "IC50", "setting": "succinate dehydrogenase", "result": 0.0095, "unit": "µM"}, {"measurement": "Disease Control Rating at 20 ppm", "setting": "Botrytis cinerea [2]", "result": 3}, {"measurement": "Disease Control Rating at 100 ppm", "setting": "Botrytis cinerea [2]", "result": 3}, {"measurement": "Disease Control Rating at 500 ppm", "setting": "Botrytis cinerea [2]", "result": 3}, {"measurement": "Disease Control Rating at 0.02 mg/mL", "setting": "Rhizoctonia solani", "result": 2}, {"measurement": "Disease Control Rating at 0.1 mg/mL", "setting": "Rhizoctonia solani", "result": 0}, {"measurement": "Disease Control Rating at 0.5 mg/mL", "setting": "Rhizoctonia solani", "result": 0}]}
{"smiles": "Cn1cc(C(=O)Nc2ccccc2OC2CCCCC2)c(C(F)(F)F)n1", "note": "[Example 23, 1H-pyrazole-4-carboxamide, N-[2-(cyclohexyloxy)phenyl]-1-methyl-3-(trifluoromethyl)-]", "values": [{"measurement": "pest or weed control at 50 ppm", "setting": "Botrytis cinerea [1]", "result": 20, "unit": "%"}, {"measurement": "pest or weed control at 200 ppm", "setting": "Botrytis cinerea [1]", "result": 66, "unit": "%"}, {"measurement": "IC50", "setting": "succinate dehydrogenase", "result": 0.01, "unit": "µM"}, {"measurement": "Disease Control Rating at 500 ppm", "setting": "Botrytis cinerea [2]", "result": 0}, {"measurement": "Disease Control Rating at 0.02 mg/mL", "setting": "Rhizoctonia solani", "result": 1}, {"measurement": "Disease Control Rating at 0.1 mg/mL", "setting": "Rhizoctonia solani", "result": 2}, {"measurement": "Disease Control Rating at 0.5 mg/mL", "setting": "Rhizoctonia solani", "result": 3}]}
{"smiles": "Cn1cc(C(=O)Nc2ccccc2OCCC2CCCC2)c(C(F)(F)F)n1", "note": "[Example 55, 1H-pyrazole-4-carboxamide, N-[2-(2-cyclopentylethoxy)phenyl]-1-methyl-3-(trifluoromethyl)-]", "values": [{"measurement": "pest or weed control at 50 ppm", "setting": "Botrytis cinerea [1]", "result": 11, "unit": "%"}, {"measurement": "pest or weed control at 200 ppm", "setting": "Botrytis cinerea [1]", "result": 0, "unit": "%"}, {"measurement": "IC50", "setting": "succinate dehydrogenase", "result": 0.027, "unit": "µM"}, {"measurement": "Disease Control Rating at 500 ppm", "setting": "Botrytis cinerea [2]", "result": 0}, {"measurement": "Disease Control Rating at 0.5 mg/mL", "setting": "Rhizoctonia solani", "result": 0}]}
{"smiles": "Cc1cc(C)c(C2CCCC2)c(NC(=O)c2cn(C)nc2C(F)(F)F)c1", "note": "[Example 31, 1H-pyrazole-4-carboxamide, N-(2-cyclopentyl-3,5-dimethylphenyl)-1-methyl-3-(trifluoromethyl)-]", "values": [{"measurement": "pest or weed control at 50 ppm", "setting": "Botrytis cinerea [1]", "result": 0, "unit": "%"}, {"measurement": "pest or weed control at 200 ppm", "setting": "Botrytis cinerea [1]", "result": 23, "unit": "%"}, {"measurement": "IC50", "setting": "succinate dehydrogenase", "result": 0.068, "unit": "µM"}, {"measurement": "Disease Control Rating at 20 ppm", "setting": "Botrytis cinerea [2]", "result": 0}, {"measurement": "Disease Control Rating at 100 ppm", "setting": "Botrytis cinerea [2]", "result": 0}, {"measurement": "Disease Control Rating at 500 ppm", "setting": "Botrytis cinerea [2]", "result": 0}, {"measurement": "Disease Control Rating at 0.5 mg/mL", "setting": "Rhizoctonia solani", "result": 1}]}
{"smiles": "Cn1cc(C(=O)Nc2ccccc2C=C2CCCC2)c(C(F)(F)F)n1", "note": "[Example 127, 1H-pyrazole-4-carboxamide, N-[2-(cyclopentylidenemethyl)phenyl]-1-methyl-3-(trifluoromethyl)-]", "values": [{"measurement": "pest or weed control at 50 ppm", "setting": "Botrytis cinerea [1]", "result": 12, "unit": "%"}, {"measurement": "pest or weed control at 200 ppm", "setting": "Botrytis cinerea [1]", "result": 52, "unit": "%"}, {"measurement": "IC50", "setting": "succinate dehydrogenase", "result": 0.083, "unit": "µM"}, {"measurement": "Disease Control Rating at 20 ppm", "setting": "Botrytis cinerea [2]", "result": 0}, {"measurement": "Disease Control Rating at 100 ppm", "setting": "Botrytis cinerea [2]", "result": 0}, {"measurement": "Disease Control Rating at 500 ppm", "setting": "Botrytis cinerea [2]", "result": 1}, {"measurement": "Disease Control Rating at 0.5 mg/mL", "setting": "Rhizoctonia solani", "result": 2}]}
{"smiles": "C=CCn1cc(C(=O)Nc2ccccc2C2CCCCC2)c(C(F)F)n1", "note": "[Example 14, 1H-pyrazole-4-carboxamide, N-(2-cyclohexylphenyl)-3-(difluoromethyl)-1-(2-propenyl)-]", "values": [{"measurement": "pest or weed control at 50 ppm", "setting": "Botrytis cinerea [1]", "result": 0, "unit": "%"}, {"measurement": "pest or weed control at 200 ppm", "setting": "Botrytis cinerea [1]", "result": 0, "unit": "%"}, {"measurement": "IC50", "setting": "succinate dehydrogenase", "result": 0.29, "unit": "µM"}, {"measurement": "Disease Control Rating at 500 ppm", "setting": "Botrytis cinerea [2]", "result": 0}, {"measurement": "Disease Control Rating at 0.5 mg/mL", "setting": "Rhizoctonia solani", "result": 1}]}
{"smiles": "Cn1cc(C(=O)Nc2ccccc2[C@@H]2C[C@H]3CC[C@@H]2C3)c(C(F)(F)F)n1", "note": "(relative stereo) [Example 27, 1H-pyrazole-4-carboxamide, N-(2-bicyclo[2.2.1]hept-2-ylphenyl)-1-methyl-3-(trifluoromethyl)-, exo-]", "values": [{"measurement": "pest or weed control at 50 ppm", "setting": "Botrytis cinerea [1]", "result": 80, "unit": "%"}, {"measurement": "pest or weed control at 200 ppm", "setting": "Botrytis cinerea [1]", "result": 74, "unit": "%"}, {"measurement": "IC50", "setting": "succinate dehydrogenase", "result": 0.0048, "unit": "µM"}, {"measurement": "Disease Control Rating at 20 ppm", "setting": "Botrytis cinerea [2]", "result": 0}, {"measurement": "Disease Control Rating at 100 ppm", "setting": "Botrytis cinerea [2]", "result": 1}, {"measurement": "Disease Control Rating at 500 ppm", "setting": "Botrytis cinerea [2]", "result": 2}, {"measurement": "Disease Control Rating at 0.5 mg/mL", "setting": "Rhizoctonia solani", "result": 0}]}
